Laboratory results: patent publication US7972793B2, “Methods and compositions for the treatment of psychotic disorders through the identification of the SULT4A1-1 haplotype” (Suregene, LLC, priority 2009, dated 2011)
Like-named read-outs stand apart in the source and are kept apart here. Marks after values point to notes of the source that are not given here.

What was measured:
[1] = tested on: CATIE African American schizophrenia patients; assay: CATIE drug response: change in total PANSS (LOCF), segmented by SULT4A1-1 status, African Americans; assay type: in vivo, human
Procedure: The design of the CATIE study has been described in detail by others (Lieberman et al., 2005; Stroup et al., 2003). […] A total of 738 subjects consented to provide DNA for genetic study. […] Retrospective genetic analyses, judged to be exempt from human studies requirements by an IRB, were conducted in the current study. All tested patients were studied using well established clinical endpoints comparing baseline, intermediate, and last observation carried forward (LOCF) for the PANSS scores using CATIE data. […] To remove time on drug as a variable for the CATIE trial, analysis was limited to only those patients who were randomized to a different drug following the initial washout period (drug switchers).

[2] = tested on: CATIE Caucasian schizophrenia patients; assay: Time to discontinuation for all causes in the CATIE study; assay type: in vivo, human
Description: The primary endpoint for the CATIE study was time to discontinuation for all causes (Lieberman et al., 2005). Thus the inventors evaluated the effect of SULT41-1 status on this important parameter.

CATIE Caucasian subjects = assay: Rate of hospitalization due to exacerbation of psychosis in CATIE by SULT4A1-1 status; assay type: in vivo, human; details: CATIE Phases 1, 2 and/or 3
Description: For this analysis, the inventors assigned a dichotomous value (positive or negative) for hospitalization status to subjects in each phase of the trial based on only the first hospitalization event for a given patient in that phase.

CATIE patients = assay: Kaplan-Meier survival (no hospitalization event) analysis, SULT4A1-1 negative vs positive; assay type: in vivo, human; details: FIG. 8
Procedure: A Kaplan-Meier survival analysis was performed to determine whether there was a difference between the survival (hospitalization) rates for the SULT4A1-1 negative and SULT4A1-1 positive patient populations treated with each of the atypical antipsychotics. Survival plots model the fraction of the population that survived (i.e., no hospitalization event) as a function of time.

[3] = tested on: CATIE Phase I non-responders; details: CATIE Phase II, LOCF; for Responders (number): decrease PANSS ≧ 20%
[4] = tested on: patients, populations not segmented by SULT4A1-1 status; details: meta-analysis, Leucht et al. (2009); negative = greater reduction in PANSS; cited from earlier work
[5] = tested on: patients, unsegmented populations; details: first generation antipsychotics; Davis et al. (2003); cited from earlier work
[6] = tested on: patients, unsegmented populations; details: Meta-analysis, Leucht et al. (2009); cited from earlier work
[7] = tested on: CATIE Caucasian schizophrenia patients; assay: CATIE Phase 1 drug response: change in total PANSS (LOCF), drug switchers, segmented by SULT4A1-1 status; assay type: in vivo, human; details: for ≦−20% (number of individuals with this percent change in total PANSS; responders) / ≧−20% (number of individuals with this percent change in total PANSS; non-responders): CATIE Caucasians, LOCF
Description: There are several different metrics for quantifying response in clinical trials of antipsychotic medications. The most commonly used psychometric instrument is the Positive and Negative Syndrome Scale (PANSS), a 30-item semi-quantitative instrument scored by clinical professionals (Kay et al., 1987). The greater the decrease in PANSS score, the better the clinical response. The most direct measure of clinical response is absolute change in PANSS score. In addition to absolute change, the improvement is often reported as a percentage change from baseline PANSS score.
A decrease of at least 20% in total PANSS is one commonly used threshold for response (Leucht et al., 2009).
The design of the CATIE study has been described in detail by others (Lieberman et al., 2005; Stroup et al., 2003). […] A total of 738 subjects consented to provide DNA for genetic study. […] Retrospective genetic analyses, judged to be exempt from human studies requirements by an IRB, were conducted in the current study.
All tested patients were studied using well established clinical endpoints comparing baseline, intermediate, and last observation carried forward (LOCF) for the PANSS scores using CATIE data. LOCF analysis is a commonly used clinical endpoint for clinical trials for neuropsychiatric drugs, with changes in PANSS scores of between negative 20% and negative 30% used as typical endpoints to indicate clinically significant response (Leucht et al., 2009). To remove time on drug as a variable for the CATIE trial, analysis was limited to only those patients who were randomized to a different drug following the initial washout period (drug switchers).
As mentioned previously, the mean change in absolute or percent PANSS provides an important measure of efficacy in patients undergoing antipsychotic treatments. Indeed, many pivotal trials in the psychosis field used absolute and/or percentage change in PANSS Score as the primary endpoint (Leucht et al., 2009). […] Therefore, in addition to examining a categorical definition of clinically significant response, the inventors determined the impact of segmentation by SULT4A1-1 status on the quantitative measure of clinical improvement—delta PANSS.

[8] = Table 16, 20% decrease in PANSS threshold, SULT4A1-1 positive group (sign not given)

## Cc1nc2n(c(=O)c1CCN1CCC(c3noc4cc(F)ccc34)CC1)CCCC2 [Risperidone]
[1]; SULT4A1-1 Negative
  ≦−20% (number of individuals; responders): 7
  ≧−20% (number of individuals; non-responders): 34
[1]; SULT4A1-1 Positive
  ≦−20% (number of individuals; responders): 3
  ≧−20% (number of individuals; non-responders): 2
[1]; SULT4A1-1 Positive, change in total PANSS ≦−20%
  Responders: 60%
[2]; SULT4A1-1 Negative
  Time to discontinuation, mean time in months: 11.3 Months
[2]; SULT4A1-1 Positive
  Time to discontinuation, mean time in months: 8.0*** Months
CATIE Caucasian subjects; SULT4A1-1 Positive
  HOSP (number of subjects hospitalized): 4
  HOSP (rate of hospitalization): (11.1%)
CATIE Caucasian subjects; SULT4A1-1 negative
  HOSP (number of subjects hospitalized): 16
  HOSP (rate of hospitalization): (13%)
CATIE Caucasian subjects; Unsegmented
  HOSP (number of subjects hospitalized): 20
  HOSP (rate of hospitalization): (12.6%)
CATIE patients
  Difference between survival (no hospitalization) rates of SULT4A1-1 negative and SULT4A1-1 positive patients: not statistically significant
[3]; SULT4A1-1 Negative
  Nonresponders (number): 8
  Responders (number): 4
[3]; SULT4A1-1 Positive
  % Responders: 0%
  Nonresponders (number): 1
  Responders (number): 0
[4]
  Effect Size vs. Placebo: −0.59
[5]
  Effect Size vs. FGA: −0.25
[6]
  Mean Difference in Total PANSS Score, Olanzapine vs. labelled drug: −1.9

## O=C1Cc2cc(CCN3CCN(c4nsc5ccccc45)CC3)c(Cl)cc2N1 [Ziprasidone]
[7]; CATIE SULT4A1-1 −
  Mean Difference in Total PANSS Score, Olanzapine vs. labelled drug: −2.1
[7]; CATIE unsegmented
  Mean Difference in Total PANSS Score, Olanzapine vs. labelled drug: −4.9
[7]; SULT4A1-1 Negative
  ≦−20% (number of individuals with this percent change in total PANSS; responders): 6
  ≧−20% (number of individuals with this percent change in total PANSS; non-responders): 32
[7]; SULT4A1-1 Positive
  ≦−20% (number of individuals with this percent change in total PANSS; responders): 3
  ≧−20% (number of individuals with this percent change in total PANSS; non-responders): 7
[7]; [8]
  Non Responder (number): 7
  Responder (number): 3
[1]; SULT4A1-1 Negative
  ≦−20% (number of individuals; responders): 4
  ≧−20% (number of individuals; non-responders): 22
[1]; SULT4A1-1 Positive
  ≦−20% (number of individuals; responders): 0
  ≧−20% (number of individuals; non-responders): 3
[2]; SULT4A1-1 Negative
  Time to discontinuation, mean time in months: 8.2*** Months
CATIE Caucasian subjects; SULT4A1-1 Positive
  HOSP (number of subjects hospitalized): 2
CATIE Caucasian subjects; SULT4A1-1 negative
  HOSP (number of subjects hospitalized): 11
CATIE Caucasian subjects; Unsegmented
  HOSP (number of subjects hospitalized): 13
CATIE patients
  Difference between survival (no hospitalization) rates of SULT4A1-1 negative and SULT4A1-1 positive patients: not statistically significant
[4]
  Effect Size vs. Placebo: −0.48
[5]
  Effect Size vs. FGA: −0.04
[6]
  Mean Difference in Total PANSS Score, Olanzapine vs. labelled drug: −8.3
